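Compound exposure: 48 hours, 5 concentrations, 96-well plates. TGI marks complete inhibition of growth.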
Experiments:
Experiment in all cases: growth of human tumour cells (NCI), 48 h
[1] = tested on: OVCAR-8 ovarian
[2] = tested on: TK-10 renal
[3] = tested on: M19-MEL melanoma
[4] = tested on: MOLT-4 leukemia
[5] = tested on: KM20L2 colon
[6] = tested on: UACC-62 melanoma
[7] = tested on: UO-31 renal
[8] = tested on: LOX IMVI melanoma
[9] = tested on: SNB-78 CNS
[10] = tested on: OVCAR-3 ovarian
[11] = tested on: U251 CNS
[12] = tested on: SR leukemia
[13] = tested on: RPMI-8226 leukemia
[14] = tested on: HOP-18 NSCLC
[15] = tested on: M14 melanoma
[16] = tested on: SF-539 CNS
[17] = tested on: LXFL 529 NSCLC
[18] = tested on: HOP-92 NSCLC
[19] = tested on: K-562 leukemia
[20] = tested on: HL-60(TB) leukemia
[21] = tested on: OVCAR-5 ovarian
[22] = tested on: CCRF-CEM leukemia
[23] = tested on: OVCAR-4 ovarian
[24] = tested on: SK-MEL-2 melanoma
[25] = tested on: NCI-H460 lung
[26] = tested on: COLO 205 colon
[27] = tested on: SNB-75 CNS
[28] = tested on: IGROV1 ovarian
[29] = tested on: DMS 114 small cell lung
[30] = tested on: ACHN renal
[31] = tested on: SF-268 CNS
[32] = tested on: SN12C renal
[33] = tested on: SK-MEL-28 melanoma
[34] = tested on: SW-620 colon
[35] = tested on: SK-MEL-5 melanoma
[36] = tested on: HCT-15 colon
[37] = tested on: UACC-257 melanoma
[38] = tested on: RXF 393 renal
[39] = tested on: DMS 273 small cell lung
[40] = tested on: HT29 colon
[41] = tested on: HCC-2998 colon
[42] = tested on: A549 NSCLC
[43] = tested on: KM12 colon
[44] = tested on: SNB-19 CNS
[45] = tested on: HOP-62 NSCLC
[46] = tested on: HCT-116 colon
[47] = tested on: EKVX NSCLC
[48] = tested on: NCI-H23 lung
[49] = tested on: SF-295 CNS
[50] = tested on: CAKI-1 renal
[51] = tested on: MALME-3M melanoma
[52] = tested on: 786-0 renal
[53] = tested on: A498 renal
[54] = tested on: SK-OV-3 ovarian
[55] = tested on: NCI-H226 lung
[56] = tested on: NCI-H522 lung
[57] = tested on: DLD-1 colon

In the case of `Nc1cc(-c2ccccc2)nn1-c1nsc2ccccc12`, the TGI [1] is reported as > 100 µM, the TGI [2] is reported as > 100 µM and the TGI [3] is reported as > 100 µM. For the same compound, the TGI [4] was > 100 µM, the TGI [5] was > 100 µM and the TGI [6] was > 100 µM. The TGI [7] was > 100 µM, the TGI [8] was > 100 µM and the TGI [9] was > 100 µM. For the same compound, the TGI [10] was > 100 µM, the TGI [11] was > 100 µM and the TGI [12] was > 100 µM. For the same compound, the TGI [13] was > 100 µM, the TGI [14] was > 100 µM and the TGI [15] was > 100 µM. The TGI [16] was > 100 µM, the TGI [17] was > 100 µM and the TGI [18] was > 100 µM. The TGI [19] was > 100 µM, the TGI [20] was > 100 µM and the TGI [21] was > 100 µM. For the same compound, the TGI [22] was 62.3 µM, the TGI [23] was > 100 µM and the TGI [24] was > 100 µM. The TGI [25] was > 100 µM, the TGI [26] was > 100 µM and the TGI [27] was 56.9 µM. The TGI [28] was > 100 µM, the TGI [29] was > 100 µM and the TGI [30] was > 100 µM. The TGI [31] was > 100 µM, the TGI [32] was > 100 µM and the TGI [33] was > 100 µM. For the same compound, the TGI [34] was > 100 µM, the TGI [35] was > 100 µM and the TGI [36] was > 100 µM. For the same compound, the TGI [37] was > 100 µM, the TGI [38] was 61.7 µM and the TGI [39] was > 100 µM. For the same compound, the TGI [40] was > 100 µM, the TGI [41] was > 100 µM and the TGI [42] was > 100 µM. The TGI [43] was > 100 µM, the TGI [44] was > 100 µM and the TGI [45] was > 100 µM. The TGI [46] was > 100 µM, the TGI [47] was > 100 µM and the TGI [48] was > 100 µM.
For `COc1ccc(C2[C@H]3C(=O)N(c4ccc(Cc5ccc(N6C(=O)[C@@H]7ON(c8ccccc8)C(c8ccc(OC)cc8)[C@@H]7C6=O)cc5)cc4)C(=O)[C@H]3ON2c2ccccc2)cc1` (some centres undefined), the TGI [1] was > 100 µM, the TGI [49] was > 100 µM and the TGI [2] was > 100 µM. For the same compound, the TGI [3] was > 100 µM, the TGI [4] was > 100 µM and the TGI [5] was > 100 µM. The TGI [6] was > 100 µM, the TGI [7] was > 100 µM and the TGI [8] was > 100 µM. The TGI [9] was > 100 µM, the TGI [10] was > 100 µM and the TGI [50] was > 100 µM. For the same compound, the TGI [51] was > 100 µM, the TGI [11] was > 100 µM and the TGI [12] was > 100 µM. The TGI [13] was > 100 µM, the TGI [14] was > 100 µM and the TGI [15] was 84.7 µM. For the same compound, the TGI [16] was > 100 µM, the TGI [17] was > 100 µM and the TGI [18] was > 100 µM. For the same compound, the TGI [19] was > 100 µM, the TGI [20] was > 100 µM and the TGI [21] was > 100 µM. The TGI [22] was > 100 µM, the TGI [23] was > 100 µM and the TGI [52] was > 100 µM. The TGI [24] was > 100 µM, the TGI [25] was > 100 µM and the TGI [26] was > 100 µM. The TGI [27] was > 100 µM, the TGI [28] was > 100 µM and the TGI [53] was > 100 µM. The TGI [30] was > 100 µM, the TGI [31] was > 100 µM and the TGI [32] was > 100 µM. For the same compound, the TGI [54] was > 100 µM, the TGI [33] was > 100 µM and the TGI [34] was > 100 µM. The TGI [35] was > 100 µM, the TGI [55] was > 100 µM and the TGI [36] was > 100 µM. For the same compound, the TGI [37] was > 100 µM, the TGI [56] was > 100 µM and the TGI [38] was > 100 µM. The TGI [39] was > 100 µM, the TGI [40] was > 100 µM and the TGI [41] was > 100 µM. The TGI [42] was > 100 µM, the TGI [43] was > 100 µM and the TGI [44] was > 100 µM. The TGI [45] was > 100 µM, the TGI [46] was > 100 µM and the TGI [57] was > 100 µM. The TGI [47] was > 100 µM and the TGI [48] was > 100 µM.

From PubChem BioAssay (NCI)
